Data set [1] in a line: Plasma concentrations of ponesimod by LC-MS/MS. The format is in vivo, human. The text has this:
The enrolled subjects came to the study center for each treatment period on Day −2 and participated in a run-in (all study procedures performed without study drug administration) on Day −1. On Day 1, subjects were randomized to one of the two possible sequences of the two up-titration regimens A and B (ratio 1:1). On Day 1, all subjects received placebo; the first study drug administration (or its matching placebo) occurred on Day 2. Regimen A consisted of the novel up-titration regimen: ponesimod was administered once daily (o.d.) orally at a dose of 2 mg on Day 2 and Day 3, 3 mg on Day 4 and Day 5, 4 mg on Day 6 and Day 7, 5 mg on Day 8, 6 mg on Day 9, 7 mg on Day 10, 8 mg on Day 11, 9 mg on Day 12, 10 mg on Day 13 and Day 14, and 20 mg on Day 15. The reference regimen (regimen B) was based on previous studies (Olsson T. et al., Oral ponesimod in relapsing-remitting multiple sclerosis: a randomised phase II trial. J Neurol Neurosurg Psychiatry. 2014; 85 (11): 1198-1208; and Vaclavkova A. et al., Oral ponesimod in patients with chronic plaque psoriasis: a randomised, double-blind, placebo-controlled phase 2 trial. Lancet. 2014; 384 (9959): 2036-2045) and consisted of an o.d. oral administration of ponesimod at a dose of 10 mg for 7 days (i.e., from Day 2 to Day 8) and 20 mg on Day 9. From Day 10 to Day 15 subjects received o.d. the matching placebo. In the placebo group (1:1 sex ratio), subjects received placebo from Day 1 to Day 15. […]
Blood samples of about 3 mL were collected in ethylene di-amine tetra acetic acid tubes at pre-dose and 3 h after study drug administration from Day 1 to Day 15 in each treatment period. […] Plasma concentrations of ponesimod were determined using a validated liquid chromatography coupled to tandem mass spectrometry assay with a lower limit of quantification of 1 ng/mL (Brossard P. et al., Pharmacokinetics and pharmacodynamics of ponesimod, a selective S1 P1 receptor modulator, in the first-in-human study. British journal of clinical pharmacology. 2013; 76 (6): 888-896). […]

In data set [2] the test system is circulating total lymphocyte count. Nature of the data set: Total lymphocyte count by hemocytometry. The format is in vivo, human. As to conditions: for total lymphocyte count, mean percentage change from baseline (±SD): Day 3; for total lymphocyte count, decrease from baseline: Day 6. From the text:
The enrolled subjects came to the study center for each treatment period on Day −2 and participated in a run-in (all study procedures performed without study drug administration) on Day −1. On Day 1, subjects were randomized to one of the two possible sequences of the two up-titration regimens A and B (ratio 1:1). On Day 1, all subjects received placebo; the first study drug administration (or its matching placebo) occurred on Day 2. Regimen A consisted of the novel up-titration regimen: ponesimod was administered once daily (o.d.) orally at a dose of 2 mg on Day 2 and Day 3, 3 mg on Day 4 and Day 5, 4 mg on Day 6 and Day 7, 5 mg on Day 8, 6 mg on Day 9, 7 mg on Day 10, 8 mg on Day 11, 9 mg on Day 12, 10 mg on Day 13 and Day 14, and 20 mg on Day 15. The reference regimen (regimen B) was based on previous studies (Olsson T. et al., Oral ponesimod in relapsing-remitting multiple sclerosis: a randomised phase II trial. J Neurol Neurosurg Psychiatry. 2014; 85 (11): 1198-1208; and Vaclavkova A. et al., Oral ponesimod in patients with chronic plaque psoriasis: a randomised, double-blind, placebo-controlled phase 2 trial. Lancet. 2014; 384 (9959): 2036-2045) and consisted of an o.d. oral administration of ponesimod at a dose of 10 mg for 7 days (i.e., from Day 2 to Day 8) and 20 mg on Day 9. From Day 10 to Day 15 subjects received o.d. the matching placebo. In the placebo group (1:1 sex ratio), subjects received placebo from Day 1 to Day 15. All treatments were administered at the same time in the morning (fasted condition) with approximately 240 mL of water. Blood samples of about 3 mL were collected in ethylene di-amine tetra acetic acid tubes at pre-dose and 3 h after study drug administration from Day 1 to Day 15 in each treatment period. After centrifugation, plasma was transferred into a polypropylene tube and stored at −21° C. (±5° C.) pending analysis. Plasma concentrations of ponesimod were determined using a validated liquid chromatography coupled to tandem mass spectrometry assay with a lower limit of quantification of 1 ng/mL (Brossard P. et al., Pharmacokinetics and pharmacodynamics of ponesimod, a selective S1 P1 receptor modulator, in the first-in-human study. British journal of clinical pharmacology. 2013; 76 (6): 888-896). Trough samples were taken on Day −1, Day 3, Day 6, Day 9, Day 12, and Day 15 of each treatment period and at EOFP and EOS to assess total lymphocyte count by hemocytometry. Cardiodynamic and pharmacodynamic data are expressed as mean±SD. Repeated measure one-way ANOVAs followed by Tukey's multiple-comparisons tests were used to perform inter-group (i.e., placebo vs. regimen A vs. regimen B) comparisons. Student's t-tests were employed to perform intra-group (baseline vs. treatment) comparisons. Differences were considered to be statistically significant at p <0.05. SAS® version 9.2 (SAS Institute, Cary, NC, USA) was used for the statistical analysis and descriptive statistics of clinical data.

The structures appear in SMILES notation.

In the case of `CCC/N=C1\S/C(=C\c2ccc(OC[C@H](O)CO)c(Cl)c2)C(=O)N1c1ccccc1C` [ponesimod, (R)-5-[3-chloro-4-(2,3-dihydroxy-propoxy)-benz[Z]ylidene]-2-([Z]-propylimino)-3-o-tolyl-thiazolidin-4-one], in data set [1] (human, plasma, oral, 20 mg, regimen A, Day 15, read-out: plasma concentration 3 h after 20 mg of ponesimod), the concentration at 3 h came to 144 ± 36.9 ng/mL. Also, the “plasma concentration 3 h after 20 mg of ponesimod” value in data set [1] (regimen B, Day 9) is 144.0 ± 41.9 ng/mL. In data set [1] (regimen B, visual inspection), the “10 mg steady-state conditions attained” value is “Day 6”. Also, in data set [2] (at EOFP and EOS, normal range i.e. 80% of baseline), the “recovery of individual total lymphocyte count” value was “returned to within the normal range”. Moreover, the figures for the “total lymphocyte count, mean percentage change from baseline (±SD)” value in data set [2] (regimen A) and in data set [2] (regimen B) were −11.6±10.2% and −28.9±12.2%, respectively. In addition, the “total lymphocyte count, decrease from baseline” value in data set [2] (regimen A) is −15.0±14.4%; in data set [2] (regimen B), −46.5±12.3%. Moreover, the “total lymphocyte count, decrease following the last dose of 10 mg” value is listed as −50.8±12.1% in data set [2] (regimen A, Day 15 before administration of the dose of 20 mg) and −52.3±11.0% in data set [2] (regimen B, Day 9 before administration of the dose of 20 mg).
